Experimental data published in US20260042755A1, “GPR6 INVERSE AGONISTS” (MapLight Therapeutics, Inc., priority 2022, published 2026).
pIC50: −log10 of the molar value.

Key:
GPR6 = molecular target: T1, GPR6 (Homo sapiens, UniProt P46095); assay: GPR6 antagonist functional cAMP assay (LANCE Ultra cAMP TR-FRET, CHO cells stably expressing GPR6); assay type: cell-based; details: CHO cells stably expressing GPR6, cAMP assay (Example 24)
T1 construct: expressed in transfected cells; host or cells: CHO cells
T1 sequence (P46095 whole entry): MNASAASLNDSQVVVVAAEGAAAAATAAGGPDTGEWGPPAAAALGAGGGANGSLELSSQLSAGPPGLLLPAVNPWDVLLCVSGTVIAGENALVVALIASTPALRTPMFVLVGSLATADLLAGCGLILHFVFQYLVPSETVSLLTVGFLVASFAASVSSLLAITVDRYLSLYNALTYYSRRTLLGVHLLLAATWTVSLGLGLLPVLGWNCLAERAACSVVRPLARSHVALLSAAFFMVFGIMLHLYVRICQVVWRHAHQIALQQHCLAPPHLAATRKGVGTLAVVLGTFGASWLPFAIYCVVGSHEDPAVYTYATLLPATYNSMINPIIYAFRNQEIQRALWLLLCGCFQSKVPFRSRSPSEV
How it was run: (§1)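 cAMP quantified by TR-FRET immunoassay after 45 min compound treatment at 37° C of CHO cells stably expressing GPR3 or GPR6, in PDE-inhibitor (Ro 20-1724, 150 μM) buffer with 0.1% BSA. Data scaled between DMSO (0%) and reference compounds (100%); antagonist IC50 by 4-parameter logistic fit.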

GPR3 = molecular target: T2, GPR3 (Homo sapiens, UniProt P46089); assay: GPR3 antagonist functional cAMP assay (LANCE Ultra cAMP TR-FRET, CHO cells stably expressing GPR3); assay type: cell-based; details: CHO cells stably expressing GPR3, cAMP assay (Example 24)
T2 construct: expressed in transfected cells; host or cells: CHO cells
T2 sequence (P46089 whole entry, species assumed): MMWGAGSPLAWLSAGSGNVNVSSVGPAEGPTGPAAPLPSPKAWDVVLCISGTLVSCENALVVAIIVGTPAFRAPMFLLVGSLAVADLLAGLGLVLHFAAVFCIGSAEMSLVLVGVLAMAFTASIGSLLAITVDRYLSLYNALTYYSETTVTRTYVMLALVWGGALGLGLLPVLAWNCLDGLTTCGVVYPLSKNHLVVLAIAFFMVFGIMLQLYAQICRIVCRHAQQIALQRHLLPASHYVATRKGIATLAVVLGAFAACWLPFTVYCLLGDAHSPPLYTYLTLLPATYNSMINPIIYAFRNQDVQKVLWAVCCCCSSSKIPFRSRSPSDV
How it was run: as §1

Row | Structure (SMILES) | pIC50 (GPR6) | pIC50 (GPR3)
1 | [2H]C([2H])([2H])C([2H])([2H])n1cc(-c2nc3c(nc2N2CCC(Oc4ccc(F)cc4F)CC2)CCN(C(C)=O)C3)cn1 [Compound 406, 1-{2-[4-(2,4-difluorophenoxy)piperidin-1-yl]-3-{1-[(1,1,2,2,2-2H5)ethyl]-1H-pyrazol-4-yl}-5H,6H,7H,8H-pyrido[3,4-b]pyrazin-6-yl}ethan-1-one] | > 7.00 | 4.52 to 6.00
2 | CC(C)(O)C(O)c1cc2nc(N3CCC(Oc4ccc(F)cc4F)CC3)c(-c3cnn(C(F)F)c3)nc2cn1 (centres unmarked) [Compound 407, 1-{3-[1-(difluoromethyl)-4-pyrazolyl]-2-[4-(2,4-difluorophenoxy)-1-piperidyl]-1,4,6-triaza-7-naphthyl}-2-methyl-1,2-propanediol] | 6.00 to 7.00 | 4.52 to 6.00
3 | Cn1cc(-c2nc3c(C#N)nccc3nc2N2CCC(Oc3ccc(F)cc3F)CC2)cn1 [Compound 409, 2-[4-(2,4-difluorophenoxy)piperidin-1-yl]-3-(1-methyl-1H-pyrazol-4-yl)pyrido[3,4-b]pyrazine-5-carbonitrile] | 6.00 to 7.00 | 6.00 to 7.00
4 | COc1cc2nc(N3CCC(Oc4ccc(F)cc4F)CC3)c(-c3cnn(C)c3)nc2cn1 [Compound 410, 2-(4-(2,4-difluorophenoxy)piperidin-1-yl)-7-methoxy-3-(1-methyl-1H-pyrazol-4-yl)pyrido[3,4-b]pyrazine] | 4.52 to 6.00 | 4.52 to 6.00
5 | CNCC(O)c1cc2nc(N3CCC(Oc4ccc(F)cc4F)CC3)c(-c3cnn(C)c3)nc2cn1 (centres unmarked) [Compound 414, 1-{2-[4-(2,4-difluorophenoxy)piperidin-1-yl]-3-(1-methyl-1H-pyrazol-4-yl)pyrido[3,4-b]pyrazin-7-yl}-2-(methylamino)ethan-1-ol] | 6.00 to 7.00 | 4.52 to 6.00
6 | CC(=O)N1CCc2nc(N3CCC(Oc4ccccc4)C3)c(-c3cnn(C)c3)nc2C1 (centres unmarked) [Compound 418, 1-[3-(1-methyl-1H-pyrazol-4-yl)-2-(3-phenoxypyrrolidin-1-yl)-5H,6H,7H,8H-pyrido[3,4-b]pyrazin-6-yl]ethan-1-one] | 4.52 to 6.00 | 4.52 to 6.00
7 | CC(=O)N1CCc2nc(N3CCC(Oc4ccccc4F)CC3)c(-c3cnn(C)c3)nc2C1 [Compound 420, 1-{2-[4-(2-fluorophenoxy)piperidin-1-yl]-3-(1-methyl-1H-pyrazol-4-yl)-5H,6H,7H,8H-pyrido[3,4-b]pyrazin-6-yl}ethan-1-one] | 6.00 to 7.00 | 4.52 to 6.00
8 | CC(=O)N1CCc2nc(N3CCC(Oc4ccc(F)cc4)CC3)c(-c3cnn(C)c3)nc2C1 [Compound 421, 1-{2-[4-(4-fluorophenoxy)piperidin-1-yl]-3-(1-methyl-1H-pyrazol-4-yl)-5H,6H,7H,8H-pyrido[3,4-b]pyrazin-6-yl}ethan-1-one] | 4.52 to 6.00 | 4.52 to 6.00
9 | CC(=O)N1CCc2nc(N3CCC(Oc4cccc(F)c4F)CC3)c(-c3cnn(C)c3)nc2C1 [Compound 423, 1-{2-[4-(2,3-difluorophenoxy)piperidin-1-yl]-3-(1-methyl-1H-pyrazol-4-yl)-5H,6H,7H,8H-pyrido[3,4-b]pyrazin-6-yl}ethan-1-one] | 4.52 to 6.00 | 4.52 to 6.00
10 | COc1ccc(OC2CCN(c3nc4c(nc3-c3cnn(C)c3)CN(C(C)=O)CC4)CC2)cc1 [Compound 425, 1-{2-[4-(4-methoxyphenoxy)piperidin-1-yl]-3-(1-methyl-1H-pyrazol-4-yl)-5H,6H,7H,8H-pyrido[3,4-b]pyrazin-6-yl}ethan-1-one] | 4.52 to 6.00 | 4.52 to 6.00
11 | COc1ccc(OC2CCN(c3nc4c(nc3-c3cnn(C)c3)CN(C(C)=O)CC4)CC2)c(OC)c1 [Compound 426, 1-{2-[4-(2,4-dimethoxyphenoxy)piperidin-1-yl]-3-(1-methyl-1H-pyrazol-4-yl)-5H,6H,7H,8H-pyrido[3,4-b]pyrazin-6-yl}ethan-1-one] | 4.52 to 6.00 | 4.52 to 6.00
12 | COc1cccc(OC2CCN(c3nc4c(nc3-c3cnn(C)c3)CN(C(C)=O)CC4)CC2)c1F [Compound 427, 1-{2-[4-(2-fluoro-3-methoxyphenoxy)piperidin-1-yl]-3-(1-methyl-1H-pyrazol-4-yl)-5H,6H,7H,8H-pyrido[3,4-b]pyrazin-6-yl}ethan-1-one] | 4.52 to 6.00 | 4.52 to 6.00
13 | CC(=O)N1CCc2nc(N3CCC(Oc4ccc(F)cc4C)CC3)c(-c3cnn(C)c3)nc2C1 [Compound 432, 1-{2-[4-(4-fluoro-2-methylphenoxy)piperidin-1-yl]-3-(1-methyl-1H-pyrazol-4-yl)-5H,6H,7H,8H-pyrido[3,4-b]pyrazin-6-yl}ethan-1-one] | 4.52 to 6.00 | 4.52 to 6.00
14 | Cn1cc(-c2nc3cnc(C(C)(O)C(C)(C)O)cc3nc2N2CCC(Oc3ccc(F)cc3F)CC2)cn1 (centres unmarked) [Compound 434, 2-(2-(4-(2,4-difluorophenoxy)piperidin-1-yl)-3-(1-methyl-1H-pyrazol-4-yl)pyrido[3,4-b]pyrazin-7-yl)-3-methylbutane-2,3-diol] | 6.00 to 7.00 | 4.52 to 6.00
15 | CC(=O)N1CCc2nc(N3CCC(Oc4ccc(F)cc4F)CC3)c(-c3ccnc(C)n3)nc2C1 [Compound 435, 1-{2-[4-(2,4-difluorophenoxy)piperidin-1-yl]-3-(2-methylpyrimidin-4-yl)-5H,6H,7H,8H-pyrido[3,4-b]pyrazin-6-yl}ethan-1-one] | 6.00 to 7.00 | 4.52 to 6.00

The remaining lines, values ahead:

Row | pIC50 (GPR6) | pIC50 (GPR3) | Structure (SMILES)
16 | 4.52 to 6.00 | 4.52 to 6.00 | Cn1cc(-c2nc3cncc(Cl)c3nc2N2CCC(Oc3ccc(F)cc3F)CC2)cn1 [Compound 411, 1-[8-chloro-3-(1-methyl-1H-pyrazol-4-yl)pyrido[3,4-b]pyrazin-2-yl]-4-(2,4-difluorophenoxy)piperidine]
17 | 4.52 to 6.00 | 4.52 to 6.00 | Cn1cc(-c2nc3cnc(C4(O)COCC4O)cc3nc2N2CCC(Oc3ccc(F)cc3F)CC2)cn1 (centres unmarked) [Compound 412, 3-{2-[4-(2,4-difluorophenoxy)piperidin-1-yl]-3-(1-methyl-1H-pyrazol-4-yl)pyrido[3,4-b]pyrazin-7-yl}oxolane-3,4-diol]
18 | 6.00 to 7.00 | 4.52 to 6.00 | Cn1cc(-c2nc3cnc(C(=O)C(C)(C)O)cc3nc2N2CCC(Oc3ccc(F)cc3F)CC2)cn1 [Compound 413, 1-(2-(4-(2,4-difluorophenoxy)piperidin-1-yl)-3-(1-methyl-1H-pyrazol-4-yl)pyrido[3,4-b]pyrazin-7-yl)-2-hydroxy-2-methylpropan-1-one]
19 | 6.00 to 7.00 | 4.52 to 6.00 | COc1ccc(OC2CCN(c3nc4cnncc4nc3-c3cnn(C)c3)CC2)c(F)c1 [Compound 417, 4-(2-fluoro-4-methoxyphenoxy)-1-[3-(1-methyl-1H-pyrazol-4-yl)pyrazino[2,3-d]pyridazin-2-yl]piperidine]
20 | 4.52 to 6.00 | 4.52 to 6.00 | CC(=O)N1CCc2nc(N3CCC(Oc4ccccc4)CC3)c(-c3cnn(C)c3)nc2C1 [Compound 419, 1-[3-(1-methyl-1H-pyrazol-4-yl)-2-(4-phenoxypiperidin-1-yl)-5H,6H,7H,8H-pyrido[3,4-b]pyrazin-6-yl]ethan-1-one]
21 | ≤ 4.52 | 4.52 to 6.00 | CC(=O)N1CCc2nc(N3CC=CCC3)c(-c3cnn(C)c3)nc2C1 [Compound 422, 1-[3-(1-methyl-1H-pyrazol-4-yl)-2-(1,2,3,6-tetrahydropyridin-1-yl)-5H,6H,7H,8H-pyrido[3,4-b]pyrazin-6-yl]ethan-1-one]
22 | 4.52 to 6.00 | 4.52 to 6.00 | CC(=O)N1CCc2nc(N3CCC(Oc4cc(C#N)ccc4F)CC3)c(-c3cnn(C)c3)nc2C1 [Compound 424, 3-({1-[6-acetyl-3-(1-methyl-1H-pyrazol-4-yl)-5H,6H,7H,8H-pyrido[3,4-b]pyrazin-2-yl]piperidin-4-yl}oxy)-4-fluorobenzonitrile]
23 | 6.00 to 7.00 | 4.52 to 6.00 | CC(=O)N1CCc2nc(N3CCC(Oc4c(F)cc(F)cc4F)CC3)c(-c3cnn(C)c3)nc2C1 [Compound 428, 1-[3-(1-methyl-1H-pyrazol-4-yl)-2-[4-(2,4,6-trifluorophenoxy)piperidin-1-yl]-5H,6H,7H,8H-pyrido[3,4-b]pyrazin-6-yl]ethan-1-one]
24 | 6.00 to 7.00 | 4.52 to 6.00 | CC(=O)N1CCc2nc(N3CCC(Oc4ccc(Cl)cc4Cl)CC3)c(-c3cnn(C)c3)nc2C1 [Compound 429, 1-{2-[4-(2,4-dichlorophenoxy)piperidin-1-yl]-3-(1-methyl-1H-pyrazol-4-yl)-5H,6H,7H,8H-pyrido[3,4-b]pyrazin-6-yl}ethan-1-one]
25 | > 7.00 | 6.00 to 7.00 | CC(=O)N1CCc2nc(N3CCC(Oc4cc(Cl)ccc4Cl)CC3)c(-c3cnn(C)c3)nc2C1 [Compound 430, 1-{2-[4-(2,5-dichlorophenoxy)piperidin-1-yl]-3-(1-methyl-1H-pyrazol-4-yl)-5H,6H,7H,8H-pyrido[3,4-b]pyrazin-6-yl}ethan-1-one]
26 | 4.52 to 6.00 | 4.52 to 6.00 | CC(=O)N1CCc2nc(N3CCC(Oc4cc(F)cc(F)c4)CC3)c(-c3cnn(C)c3)nc2C1 [Compound 431, 1-{2-[4-(3,5-difluorophenoxy)piperidin-1-yl]-3-(1-methyl-1H-pyrazol-4-yl)-5H,6H,7H,8H-pyrido[3,4-b]pyrazin-6-yl}ethan-1-one]
27 | 4.52 to 6.00 | 4.52 to 6.00 | CNc1cc2nc(N3CCC(Oc4ccc(F)cc4F)CC3)c(-c3cnn(C)c3)nc2cn1 [Compound 433, 2-(4-(2,4-difluorophenoxy)piperidin-1-yl)-N-methyl-3-(1-methyl-1H-pyrazol-4-yl)pyrido[3,4-b]pyrazin-7-amine]
28 | 4.52 to 6.00 | 4.52 to 6.00 | Cn1cc(-c2nc3cncc(C#N)c3nc2N2CCC(Oc3ccc(F)cc3F)CC2)cn1 [Compound 436, 2-[4-(2,4-difluorophenoxy)piperidin-1-yl]-3-(1-methyl-1H-pyrazol-4-yl)pyrido[3,4-b]pyrazine-8-carbonitrile]
